This note sets out measurements from US8772499B2, “TRPV3 modulators” (AbbVie Inc., priority 2011, dated 2014).

pIC50: −log10 of the molar value. Read-outs that look alike come from different tables or passages of the source.

Broadly, the pIC50 is −log10 of the IC50, conventionally taken in molar units.

Data set [1] is described as follows: In vitro human microsomal stability assay. In kind it is in vitro ADME. The conditions noted are these: for HUMAN MICROSOMAL STABILITY (% REMAINING AFTER 30 MINUTES): microsomes, 0.5 h, 0.5 μM, pH 7.4. The procedure: (§1) Test compounds were evaluated for metabolic stability in an in vitro rat microsomal stability assay using rat liver microsomes (Sprague-Dawley, from BD Biosciences) and/or an in vitro human microsomal stability assay using human liver microsomes (Xenotech). […] Incubations were carried out at 37° C. with a final incubation volume of 135 μL. […] A 1.5 μL aliquot of reduced nicotine adenine disphosphonucleotide (NADPH) (Chem-Impex Int'L Inc., Lot 12532024) was also added to the time-zero plates.

In the next data set the target is T1, human TRPV3 (Homo sapiens, UniProt Q8NET8).
T1 construct: expressed in transfected cells
T1 sequence (Q8NET8 1-790): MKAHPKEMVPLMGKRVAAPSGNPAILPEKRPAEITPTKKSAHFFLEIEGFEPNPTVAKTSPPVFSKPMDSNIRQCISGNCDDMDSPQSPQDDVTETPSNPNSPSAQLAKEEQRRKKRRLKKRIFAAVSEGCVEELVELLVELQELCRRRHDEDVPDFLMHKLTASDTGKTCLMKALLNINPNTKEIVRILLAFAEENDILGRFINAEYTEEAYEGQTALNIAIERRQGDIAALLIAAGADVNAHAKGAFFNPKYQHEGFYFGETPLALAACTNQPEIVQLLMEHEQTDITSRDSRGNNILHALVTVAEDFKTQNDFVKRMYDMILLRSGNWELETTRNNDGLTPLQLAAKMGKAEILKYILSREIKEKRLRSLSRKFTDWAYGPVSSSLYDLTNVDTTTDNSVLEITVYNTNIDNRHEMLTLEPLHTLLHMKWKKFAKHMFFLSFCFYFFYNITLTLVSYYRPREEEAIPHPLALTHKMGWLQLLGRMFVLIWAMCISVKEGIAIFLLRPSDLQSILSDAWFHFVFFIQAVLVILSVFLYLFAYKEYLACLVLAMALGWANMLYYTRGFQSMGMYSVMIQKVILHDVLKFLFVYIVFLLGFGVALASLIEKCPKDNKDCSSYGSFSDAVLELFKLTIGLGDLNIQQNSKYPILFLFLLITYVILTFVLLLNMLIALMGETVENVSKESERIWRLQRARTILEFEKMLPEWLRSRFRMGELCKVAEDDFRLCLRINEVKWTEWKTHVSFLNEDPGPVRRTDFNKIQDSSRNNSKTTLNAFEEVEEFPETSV
Kind of data set: In vitro antagonism of recombinant human TRPV3 activation (FLIPR Tetra calcium assay). It is filed as cell-based. Conditions: HEK293 cells stably expressing human TRPV3, agonist 2-APB at 80 μM. As for the experimental part:
Test compounds were evaluated for ability to antagonize the activation of recombinant human TRPV3 using FLIPR® Tetra cellular screening. Specifically, on the day prior to the experiment recombinant HEK293 cells that stably express human TRPV3 were removed from tissue culture flasks and plated in growth medium at 20,000 cells/well into Poly-d-lysine coated black/clear 384-well Plate (Corning, 3845) using a Multidrop® dispenser (ThermoScientific, Waltham, Mass.). Prior to the start of the assay, the medium was removed by aspiration, and cells were loaded with 30 μL no-wash FLIPR® Calcium-4 dye (λEX=470-495 nm, λEM=515-575 nm; Molecular Devices, Sunnyvale, Calif.). The cells were then incubated for 90-120 minutes in the dark prior to addition of the test compound.
A double-addition protocol was used. The test compound (i.e., the TRPV3 antagonist) was added at the 10 second time point, followed by the addition of a TRPV3 agonist three minutes later. Each test compound evaluated was first dissolved in DMSO to prepare a 10 mM stock solution. A solution (5×) of the test compound was then prepared in DPBS (Dulbecco's Phosphate Buffered Saline) and 10 μl, of that solution was added to the cells at a delivery rate of 40 μL/sec. The TRPV3 agonist used to activate human TRPV3 expressed by the […] was 2-aminoethoxy-diphenyl borate (2-APB; Tocris Cookson, Ellisville, Mo.) at 80 μM. Final assay volume was 50 μl, Total length of an experimental run was 10 minutes.
Changes in fluorescence were measured over time using the FLIPR® instrument. The intensity of the fluorescence was captured and digitally transferred to an interfaced computer. The maximum response minus minimum response was calculated and expressed as the percentage of the maximum 2-APB response in the absence of antagonist. The concentration of 2-APB corresponds to its EC80.
Table 1 reports the IC50 values measured for the test compounds as human TRPV3 antagonists. […] Actual measured values are shown parenthetically after the reported range. In most cases, the values reported are average values from at least two runs (i.e., n≧2).

Data set [2] can be described thus: In vitro rat microsomal stability assay. The conditions noted are these: for RAT MICROSOMAL STABILITY (% REMAINING AFTER 30 MINUTES): Sprague-Dawley, microsomes, 0.5 h, 0.5 μM, pH 7.4. It is filed as in vitro ADME, rat (Sprague-Dawley). The procedure: as §1
The mark [3] stands for this setting: actual measured value shown parenthetically, in most cases average of at least two runs, read-out: IC50.
[4] abbreviates: reported range, read-out: IC50 (range class).

For `OC(c1ccccn1)C1(C(c2ccccc2)C(F)(F)F)CCC1` (stereo not shown) [Example 58, pyridin-2-yl[1-(2,2,2-trifluoro-1-phenylethyl)cyclobutyl]methanol], in data set [1], the “HUMAN MICROSOMAL STABILITY (% REMAINING AFTER 30 MINUTES)” value is listed as 36%. The pIC50 on human TRPV3 (setting [3]) was 5.44. Moreover, the “RAT MICROSOMAL STABILITY (% REMAINING AFTER 30 MINUTES)” value in data set [2] came out at 33%.
The corresponding values for `COC1CC(c2ccc(Cl)c(Cl)c2)(C(O)c2ccccn2)C1` [Example 150, (S)-[cis-1-(3,4-dichlorophenyl)-3-methoxycyclobutyl](pyridin-2-yl)-methanol] are 42%, 5.77 and under 0.01%.
For `CC1(O)CC(c2cccc(OC(F)(F)F)c2)(C(O)c2ccccn2)C1` [Example 263, trans-3-[(S)-hydroxy(pyridin-2-yl)methyl]-1-methyl-3-[3-(trifluoromethoxy)phenyl]cyclobutanol], the pIC50 on human TRPV3 (setting [3]) is 5.55. The “RAT MICROSOMAL STABILITY (% REMAINING AFTER 30 MINUTES)” value in data set [2] was over 85%.
For the molecule `OC(c1ccccn1)C1(C2=CCCOC2)CCC1` (single isomer, unassigned) [Example 269, [1-(5,6-dihydro-2H-pyran-3-yl)cyclobutyl](pyridin-2-yl)methanol], the “HUMAN MICROSOMAL STABILITY (% REMAINING AFTER 30 MINUTES)” value in data set [1] is reported as 40%. Besides, in data set [2], the “RAT MICROSOMAL STABILITY (% REMAINING AFTER 30 MINUTES)” value worked out at 12%.
The corresponding values for `OC(c1ccccn1)C1(C2CCOCC2)CCC1` (stereo not shown) [Example 239, pyridin-2-yl[1-(tetrahydro-2H-pyran-4-yl)cyclobutyl]methanol] are 57% and 0.072%.
With `CC1(O)CC(c2ccc(OC(F)(F)F)cc2)(C(O)c2ncccn2)C1` [Example 311, (trans)-3-((R)-hydroxy(pyrimidin-2-yl)methyl)-1-methyl-3-(4-(trifluoromethoxy)phenyl)cyclobutanol], the pIC50 at human TRPV3 (setting [3]) and at human TRPV3 (setting [4]) was under 4.70 each time. Also, the “RAT MICROSOMAL STABILITY (% REMAINING AFTER 30 MINUTES)” value in data set [2] is recorded as over 85%.
For `OC(c1ncccn1)C1(c2ccc(Cl)c(Cl)c2)CCC1` (stereo not shown) [Example 38, [1-(3,4-dichlorophenyl)cyclobutyl] (pyrimidin-2-yl)methanol], the negative logarithm of the IC50 (pIC50) on human TRPV3 (setting [3]) was 7.22. Moreover, the “RAT MICROSOMAL STABILITY (% REMAINING AFTER 30 MINUTES)” value in data set [2] was found to be 9.5%.
For `CC(c1cccc(C(F)(F)F)c1)C1(C(O)c2ccccn2)CCC1` (stereo not shown) [Example 54, pyridin-2-yl(1-{1-[3-(trifluoromethyl)phenyl]ethyl}cyclobutyl)methanol], in that order: 4.66 and 0.21%.
Turning to `OC(C1CCc2cccnc21)C1(c2ccccc2OC(F)(F)F)CCC1` (stereo not drawn) [Example 193, (anti)-6,7-dihydro-5H-cyclopenta[b]pyridin-7-yl{1-[2-(trifluoromethoxy)-phenyl]cyclobutyl}methanol], the “HUMAN […] (% REMAINING AFTER 30 MINUTES)” value in data set [1] (human liver microsomes, 0.5 μM substrate, 0.25 mg/mL microsomal protein, pH 7.4, 37° C., NADPH, 30 minutes) is on record as 0.02%. For the same molecule, the “RAT […] (% REMAINING AFTER 30 MINUTES)” value in data set [2] (rat liver microsomes (Sprague-Dawley), 0.5 μM substrate, 0.25 mg/mL microsomal protein, pH 7.4, 37° C., NADPH, 30 minutes) is under 0.01%.
`NC1CCCC1C(O)C1(c2cccc(OC(F)(F)F)c2)CCC1` (stereo not shown) [Example 208, (2-aminocyclopentyl) {1-[3-(trifluoromethoxy)phenyl]cyclobutyl}methanol]: the pIC50 at human TRPV3 (setting [3]) is 5.69. Also, in data set [2], the “RAT MICROSOMAL STABILITY (% REMAINING AFTER 30 MINUTES)” value is on record as 36%.
For `OC(c1ncccn1)C1(c2cccc(OC(F)(F)F)c2)CCC1` (stereo not shown) [Example 37, pyrimidin-2-yl{1-[3-(trifluoromethoxy)phenyl]cyclobutyl}methanol], in that order: 6.08 and 7.7%.
Consider `OC(c1ccccn1)C1(C2=COCCC2)CCC1` (single isomer, unassigned) [Example 270, [1-(3,4-dihydro-2H-pyran-5-yl)cyclobutyl](pyridine-2-yl)methanol], for which the “HUMAN MICROSOMAL STABILITY (% REMAINING AFTER 30 MINUTES)” value in data set [1] was determined as 17%. In addition, in data set [2], the “RAT MICROSOMAL STABILITY (% REMAINING AFTER 30 MINUTES)” value was determined as 0.48%.
For `CCN(CC)c1ccc(C2(C(O)c3ccccn3)CCC2)cc1` (stereo not shown) [Example 18, {1-[4-(diethylamino)phenyl]cyclobutyl}(pyridin-2-yl)methanol], the pIC50 on human TRPV3 (setting [3]) is 6.13. Further, the “RAT MICROSOMAL STABILITY (% REMAINING AFTER 30 MINUTES)” value in data set [2] was determined as 0.27%.
In the case of `NC1CCCCC1C(O)C1(c2cccc(OC(F)(F)F)c2)CCC1` (stereo not shown) [Example 210, (2-aminocyclohexyl) {1-[3-(trifluoromethoxy)phenyl]cyclobutyl}methanol], the pIC50 at human TRPV3 (setting [3]) is 5.48.
Regarding `COc1ccc(C2(C(O)c3ccccn3)CCOC2)cc1` (stereo not shown) [Example 83, [3-(4-methoxyphenyl)tetrahydrofuran-3-yl](pyridin-2-yl)methanol], the pIC50 at human TRPV3 (setting [3]) and at human TRPV3 (setting [4]) was under 4.70 each time.
Consider `OC(c1ncccn1)C1(c2ccccc2F)CCC1` (stereo not shown) [Example 32, [1-(2-fluorophenyl)cyclobutyl](pyrimidin-2-yl)methanol], for which the pIC50 at human TRPV3 (setting [3]) and at human TRPV3 (setting [4]) was under 4.70 in each case.
As for `OC(c1ccccn1)C1(c2cc(F)cc(C(F)(F)F)c2)CCC1` (stereo not shown) [Example 14, {1-[3-fluoro-5-(trifluoromethyl)phenyl]cyclobutyl}(pyridin-2-yl)methanol], the pIC50 on human TRPV3 (setting [3]) and at human TRPV3 (setting [4]) was under 4.70 throughout.
`CC1(O)CC(c2cncc(C(F)(F)F)c2)(C(O)c2ccccn2)C1` (single isomer, unassigned) [Example 309]: the “HUMAN MICROSOMAL STABILITY (% REMAINING AFTER 30 MINUTES)” value in data set [1] was over 85%. Moreover, the pIC50 on human TRPV3 (setting [3]) was 5.52.
`OC(c1ccccn1)C1(c2ccc(C(F)(F)F)cc2)CCOCC1` (stereo not shown) [Example 65, pyridin-2-yl{4-[4-(trifluoromethyl)phenyl]tetrahydro-2H-pyran-4-yl}-methanol]: the negative logarithm of the IC50 (pIC50) at human TRPV3 (setting [3]) was 5.65.
Still for that read-out and setting: as for `NC1CCCC1C(O)C1(c2ccc(Cl)c(Cl)c2)CCC1` (stereo not shown) [Example 215, (2-aminocyclopentyl)[1-(3,4-dichlorophenyl)cyclobutyl]methanol], the figure is 6.11.
Consider `N#Cc1cccc(C2(C(O)c3ccccn3)CCOC2)c1` (stereo not shown) [Example 81, 3-{3-[hydroxy(pyridin-2-yl)methyl]tetrahydrofuran-3-yl}benzonitrile], for which the pIC50 on human TRPV3 (setting [3]) and on human TRPV3 (setting [4]) was under 4.70 each time.
As to `N#Cc1ccc(C2(C(O)c3ccccn3)CCOC2)cc1` (stereo not shown) [Example 79, 4-{3-[hydroxy(pyridin-2-yl)methyl]tetrahydrofuran-3-yl}benzonitrile], the pIC50 at human TRPV3 (setting [3]) and at human TRPV3 (setting [4]) was under 4.70 in each case.
`OC(CC1(c2cccc(Cl)c2)CCC1)c1ccccn1` (stereo not shown) [Example 72, 2-[1-(3-chlorophenyl)cyclobutyl]-1-(pyridin-2-yl)ethanol]: the pIC50 on human TRPV3 (setting [3]) is 5.65.
The same measure, in the same setting: as for `NC1CCCC1C(O)C1(c2ccccc2OC(F)(F)F)CCC1` (stereo not shown) [Example 214, (2-aminocyclopentyl) {1-[2-(trifluoromethoxy)phenyl]cyclobutyl}methanol], the figure is 5.91.
